Measured values as given in US6696293B2, “Process for producing carotenoids and biological materials useful therefor” (Roche Vitamins Inc., priority 2000, dated 2004).

Test system: P. rhodozyma ATCC 96594
Assay: Growth of P. rhodozyma colonies on SHAM-containing YPD-agar
Format: cell-based, Phaffia rhodozyma
Settings: 3 day-cultivation at 20° C.; for Relative colony diameter (%): relative to control colonies without SHAM
Description: To examine the effects of the inhibition of KCN-resistant respiration mediated by alternative oxidase on the growth of P. rhodozyma, SHAM was added to a culture of P. rhodozyma on YPD-agar medium. SHAM was dissolved in ethanol and added to the YPD-agar medium to give 0.05, 0.15, 0.30, 0.45 and 0.90 mg/ml as a final concentration. After dilution, 2×10^7 cells/ml of P. rhodozyma ATCC 96594 were spread on the media. After a 3 day-cultivation at 20° C., colonies were counted. […] However, the colonies that grew on SHAM-containing media were smaller than the colonies that grew on the control media.

`O=C(NO)c1ccccc1O` [SHAM, Salicylhydroxamic acid] was tested, and the “Relative colony diameter (%)” value (SHAM 0.05 mg/ml in YPD-agar) was 100%, the “Relative colony diameter (%)” value (SHAM 0.15 mg/ml in YPD-agar) was 70% and the “Relative colony diameter (%)” value (SHAM 0.30 mg/ml in YPD-agar) was 40%. The “Relative colony diameter (%)” value (SHAM 0.45 mg/ml in YPD-agar) was 30%, the “Relative colony diameter (%)” value (SHAM 0.90 mg/ml in YPD-agar) was 12% and the “Number of colonies that grew on SHAM-containing YPD agar” value (SHAM 0.05-0.90 mg/ml, compared with control medium without SHAM) was “almost the same as that on control medium”.
